Test results taken from US20240197812A1, “Methods of Treating Cardiac Injury” (Proletariat Therapeutics, Inc., priority 2022, published 2024).

Tested on: critically ill patients with vasodilatory shock
Experiment: Prospective observational study: safety (thromboembolic events, serum troponin elevation)
Format: in vivo
Conditions: for Elevated serum troponin - %: troponin I level ≥20 ng/L
Description: A prospective observational study was conducted to evaluate the efficacy, safety feasibility of using angiotensin II as a primary vasopressor for treatment of critically ill patients with vasodilatory shock.
Study Population: A total of 40 patients receiving angiotensin II were matched to 80 control patients who received conventional vasopressors (norepinephrine, vasopressin, metaraminol, epinephrine, or combinations thereof). […] The mean patient age was 63 years (SD 14 years), two-thirds of patients were male, and the median APACHE III score was 65 (IQR 49 to 80). There were no significant differences between groups in terms of demographics, clinical characteristics, illness severity, baseline vasopressor type and dose, physiological parameters, or biochemistry.
Vasodilatory shock was defined by a mean arterial pressure <65 mmHg in the presence of sufficient volume resuscitation and preserved cardiac output, based on either a cardiac index ≥2.3 L/min/m^2, a central venous oxygen saturation ≥70%, or clinician judgement. Patients were excluded if they had kidney failure (i.e., chronic hemodialysis, peritoneal dialysis or a baseline estimated glomerular filtration rate <15 mL/min/1.73 m^2) or were diagnosed with arterial (acute coronary syndrome, ischemic stroke, or mesenteric ischemia) or venous thrombosis (deep vein thrombosis or pulmonary embolism) within the preceding 6 months. […] The mean patient age was 63 (SD 14) years, two-thirds of patients were male, and the median APACHE III score was 65 (IQR 49 to 80). There were no significant differences between the angiotensin II group and the conventional vasopressor group in terms of demographics, clinical characteristics, illness severity, vasopressor type and use, physiological parameters, or biochemistry.
Intervention: Infusions of angiotensin II were initiated to deliver a dose between 5 and 10 ng/kg/min. The dose was adjusted every 5 minutes according to a protocolized titration scheme to achieve a mean arterial pressure (MAP) of ≥65 mmHg (dose range 1.25 to 40 ng/kg/min). During the adjustment period, infusions of other vasopressor agents were weaned and discontinued where possible. Where the MAP was inadequate despite the maximum dose of angiotensin II, additional vasopressor agents were prescribed at the discretion of the clinician. The use of vasopressin (dose range 0.01 to 0.04 IU/min) was preferred over the use of norepinephrine (dose range 0 to 40 mcg/min). Angiotensin II was continued until resolution of shock, death, or for a maximum of 7 days. If ongoing vasopressor therapy was required after this time, norepinephrine was utilized.
Control: The control arm included critically ill patients with vasodilatory shock who received conventional vasopressors. To address confounding by indication and other sources of bias arising from the use of non-randomized data, a propensity score was estimated for the likelihood of treatment with angiotensin II to match patients in the intervention arm to their nearest neighbor in the control arm using a 1:2 ratio without replacement. Propensity scores were generated based on age, sex, APACHE II score, serum creatinine level, vasopressor type and dose at enrollment, and time from ICU admission and initiation of any vasopressor to initiation of angiotensin II.
Secondary Outcomes: Secondary renal outcomes included new or progressive AKI, creatinine trajectory, the requirement for CRRT, time to CRRT liberation, and the development of a major adverse kidney event at day 7 (MAKE7). New AKI was defined and staged according to the Kidney Disease Improving Global Outcomes (KDIGO) criteria as a rise in serum creatinine of ≥26.5 μmol/L in 48 hours or as a ≥50% increase in serum creatinine from baseline within 7 days. Progressive AKI was defined as an increase in AKI severity by at least one KDIGO stage. MAKE7 was a composite of death, dialysis dependence, and a persistent 50% increase in serum creatinine level. […]

## CC[C@H](C)[C@H](NC(=O)[C@H](Cc1ccc(O)cc1)NC(=O)[C@@H](NC(=O)[C@H](CCCNC(=N)N)NC(=O)[C@@H](N)CC(=O)O)C(C)C)C(=O)N[C@@H](Cc1cnc[nH]1)C(=O)N1CCC[C@H]1C(=O)N[C@@H](Cc1ccccc1)C(=O)O [Angiotensin II, Asp-Arg-Val-Tyr-Ile-His-Pro-Phe]
In vivo
  Deep vein thrombosis - %: (5) %
  Pulmonary embolus - %: (10) %
Number of patients
  Deep vein thrombosis - no.: 2
  Pulmonary embolus - no.: 4
  Elevated serum troponin - %: (8) %
Listed as angiotensin II
  Elevated serum troponin - %: 8%
